Measured values published in patent US20230320996A1, “NANOPARTICLES AND METHODS OF MANUFACTURE THEREOF” (Hillstream BioPharma, Inc., priority 2020, published 2023).

Tests used:
[1] = test system: MCF-7 cells; assay: Inhibition of cell proliferation; assay type: cell-based; conditions: Homo sapiens, MCF7; 5000 cells per well, 0.01-100 μM, 72 hours
Description: (§1) Next, the potency of inhibition of salinomycin-induced cell growth was probed by comparing the inhibition with salinomycin and salinomycin nanoparticle in MCF-7, MDA-MB 231 and MDA-MB 468 cell lines. […] (see FIG. 6A, B, C). MCF-7 cells at concentration of 5000 cells per well were treated with salinomycin or salinomycin nanoparticles from a concentration of 0.01-100 μM respectively for 72 hours. […] MDA-MB 468 cells at concentration of 5000 cells per well were treated with salinomycin or salinomycin nanoparticles from a concentration of 0.01-100 μM respectively for 72 hours. […] MDA-MB 231 cells at concentration of 5000 cells per well were treated with salinomycin or salinomycin nanoparticles from a concentration of 0.01-100 μM respectively for 72 hours.

[2] = test system: MDA-MB 231 cells; assay: Inhibition of cell proliferation; assay type: cell-based; conditions: Homo sapiens, 5000 cells per well, 0.01-100 μM, 72 hours
Description: as §1

[3] = test system: MDA-MB 468 cells; assay: Inhibition of cell proliferation; assay type: cell-based; conditions: Homo sapiens, 5000 cells per well, 0.01-100 μM, 72 hours
Description: as §1

[4] = test system: BALB/c mice; assay: Maximum tolerated dose, body weight reduction as response; assay type: in vivo; conditions: intravenously
Description: Next, the maximum tolerated dose of salinomycin and salinomycin-loaded PLA based hybrid block copolymeric salinomycin nanoparticle was probed in BALB/c mice. Mice were administered the salinomycin loaded hybrid block copolymeric nanoparticles once a week for 3 weeks. The body weight reduction was observed as a phenotypic response. The dose-response of salinomycin and the salinomycin nanoparticle was observed by administration intraperitoneally (FIG. 7) and intravenously (FIG. 8). For intraperitoneal administration, mice were administered salinomycin and salinomycin loaded nanoparticles at 5 mg/kg, 7.5 mg/kg, 10 mg/kg. Further, only the salinomycin nanoparticles were administered at 12 mg/kg and 15 mg/kg, intraperitoneally. Three mice were probed at each dose for salinomycin and salinomycin loaded nanoparticle. For intravenous administration, mice were administered salinomycin and salinomycin loaded nanoparticles at 5 mg/kg. Only salinomycin nanoparticles were administered at 1 mg/kg, and 7.5 mg/kg. Further another group of salinomycin at 2.5 mg/kg was also tested. Three mice were probed at each dose for salinomycin and salinomycin loaded nanoparticle. It was observed that free salinomycin was tolerated up to a dose of 10 mg/kg and the salinomycin loaded nanoparticle was tolerated up to 15 mg/kg, when administered intraperitoneally. […]

CC[C@@H](C(=O)[C@@H](C)[C@@H](O)[C@H](C)[C@@H]1O[C@@H]([C@@H](CC)C(=O)O)CC[C@@H]1C)[C@H]1O[C@]2(C=C[C@@H](O)[C@]3(CC[C@@](C)([C@H]4CC[C@](O)(CC)[C@H](C)O4)O3)O2)[C@H](C)C[C@@H]1C [salinomycin]
IC50 [1]: 2270 nM
IC50 [2]: 3.46 µM
IC50 [3]: 1470 nM
lethal dose [4]: 5 mg/kg
